From EP0311724A1, “Anxiolytic-R-N-(1-azabicyclo[2.2.2]oct-3-yl) benzamides and thiobenzamides” (SYNTHELABO, priority 1987, dated 1989)
Structures can show the parent of a compound that is named as a salt.

What was measured:
[1] = system: mouse; experiment: Exploratory behaviour of the mouse in a two-compartment box (method of Crawley and Goodwin); format: in vivo; parameters: key: +: significant increase vs. control; -: significant decrease vs. control; ns: no significant change vs. control; conditions: dose 0.1-10 mg/kg ip, change vs. control
Method: (§1) The anxiolytic activity was determined by the method of Costall et al details of which are to be found in the pharmacology examples later in this specification. In brief, the method involves seeing whether the compound under test reduced the natural anxiety of mice in brightly-lit areas. Anxiolytic activity was also assessed by the method of Crawley and Goodwin (Pharm. Biochem. Behavior (1980), 13,167-170).
Compounds of the invention have been studied in the laboratory animal to evaluate their anxiolytic activity. As a typical compound of the invention, R(+)-4-Amino-N-(3-quinuclidinyl)-5-chloro-2-methoxy benzamide dihydrochloride (R(+)-4-Amino-N-(1-azabicyclo[2.2.2]oct-3-yl)-5-chloro-2-methoxybenzamide dihydrochloride), the compound of Example 14, was investigated for its anxiolytic activity, which was compared with that of the racemate (unresolved product of Example 2) and the corresponding enantiomer of absolute configuration S (product of Comparison Example 1).
The method used in this example was that described by Crawley and Goodwin (Pharm. Biochem. Behavior (1980) 13, 167-170), where aspects of behaviour of the mouse are compared in a lit zone and a dark zone of a two-compartment box.

[2] = system: Naive male albino BKW mice; experiment: Anti-anxiety test (light/dark two-compartment box, method of Costall et al); format: in vivo; conditions: 40 min pretreatment, n = 5
Method: as §1
Naive male albino BKW mice, 25-30g, were used in all experiments. 10 mice were normally housed in each cage and given free access to food and water. The mice were kept on a 12h light and 12h dark cycle with lights off at 8.00am and on at 8.00pm.
The apparatus used for the detection of changes in anxiety consisted of an open topped box (45 x 27 x 27cm high) one third painted black and illuminated under a dim red light (1 x 60W) and partitioned from the remainder of the box which was painted white and brightly illuminated with a 100W light source located 17cm above the box. Access between these areas was enabled by means of a 7.5 x 7.5cm opening located at floor level in the centre of the partition. The floor area was lined into 9cm squares. The test was conducted between 13.00 and 18.00h in a quiet, darkened room illuminated with red light only. Animals were thus taken in a dark container from a dark holding room to the dark testing room.
Animals that had received drug or vehicle injections were placed individually into the centre of the white area and their behaviour observed over a 5 min period by remote video recording.
Animals were used in treatment groups of 5 and vehicle controls were run on each day of testing. Results were anlysed using Single-Factor Analysis of Variance followed by Dunnett's procedure for comparing all treatments with control.
Compounds of Example 14 and Comparison Example 1 were dissolved in minimum HCI made up to volume with distilled water. Doses were expressed as the base and were administered as a 40 min pretreatment in a volume of 1 mIi100g body weight. Administration was by the subcutaneous route.

[3] = Black Section, 0.1 mg/kg subcutaneous
[4] = Black Section, 1.0 mg/kg subcutaneous
[5] = Black Section, 10.0 mg/kg subcutaneous
[6] = White Section, 0.1 mg/kg subcutaneous
[7] = White Section, 1.0 mg/kg subcutaneous
[8] = White Section, 10.0 mg/kg subcutaneous

| SMILES | Movement activity ([1]; Dark zone) | Straightenings ([1]; Dark zone) | Movement activity ([1]; Light zone) | Straightenings ([1]; Light zone) | Crossings/5min [2, 3] | Rearings/5 min [2, 3] | Crossings/5min [2, 4] | Rearings/5 min [2, 4] | Crossings/5min [2, 5] | Rearings/5 min [2, 5] | Crossings/5min [2, 6] | Rearings/5 min [2, 6] | Crossings/5min [2, 7] | Rearings/5 min [2, 7] | Crossings/5min [2, 8] | Rearings/5 min [2, 8] |
| --- | --- | --- | --- | --- | --- | --- | --- | --- | --- | --- | --- | --- | --- | --- | --- | --- |
| COc1cc(N)c(Cl)cc1C(=O)NC1CN2CCC1CC2 (racemic) [Compound of Example 2] | - | - | + | + |  |  |  |  |  |  |  |  |  |  |  |  |
| COc1cc(N)c(Cl)cc1C(=O)N[C@@H]1CN2CCC1CC2 [Comparison Example 1, S(-)-4-Amino-N-(3-quinuclidinyl)-5-chloro-2-methoxybenzamide hydrochloride] | ns | ns | ns | ns | 39.4±3.0 | 35.2±3.1 | 37.6±3.8 | 38.1±3.2 | 50.8±5.2 | 48.3±4.1 | 23.2±2.3 | 23.0±2.1 | 26.8±2.7 | 21.5±2.0 | 24.7±2.1 | 24.0±1.9 |
| COc1cc(N)c(Cl)cc1C(=O)N[C@H]1CN2CCC1CC2 [Example 14, R(+)-4-Amino-N-(3-quinuclidinyl)-5-chloro-2-methoxybenzamide hydrochloride] | - | - | + | + | 14.6±1.5^+++ | 13.6±1.1^+++ | 13.6±1.2^+++ | 13.0±1.4^+++ | 17.6±1.4^+++ | 14.7±1.2^+++ | 52.9±5.0 | 64.8±6.0 | 87.4±7.6 | 82.4±7.4 | 73.7±7.2 | 76.2±7.6 |
